# Experimental data taken from patent US10550111B2, “Pyrimidine urea compound containing isoxazolines and use thereof” (SHENYANG SINOCHEM AGROCHEMICALS R&D CO., LTD, priority 2014, dated 2020).
# Columns and labels:
# Assay type in all cases: in vivo
# [1] = test system: Setaria glauca (L.) Beauv.; assay: Bioassay of herbicidal activity in greenhouse (further screening)
# Procedure: (§1) Determination of herbicidal activity of compounds of the present invention against weeds was carried out by the following procedures:
# (§2) Seeds of monocotyledonous and dicotyledonous weeds were sown in nutrition soil in paper pot (7 cm diameter), covered with soil in 1 cm and grown in the greenhouse under good growth conditions (temperature, atmospheric humidity, water supply). The compounds of the present invention as emulsifiable concentrate, were applied in pre-emergence and post-emergence treatment by track sprayer (Engineer Research Ltd., pressure 1.95 kg/cm^2, volume 500 L/hm^2, track speed 1.48 km/h). Pre-emergence treatment was conducted after seeding 24 hours and post-emergence treatment was done when the respective weeds reached predetermined leaf stage (grass weed 2- to 3-leaf stage, broad-leaf weed 2- to 4-leaf stage), the state of growth of the respective weeds were visually observed to determine the growth inhibition rate (%) in accordance with the following evaluation standard.
# (§3) Growth inhibition rate (%): 0=no discernible action: 100=all weeds dead or not emerged.
# [2] = test system: Abutilon theophrasti Medic.; assay: as above
# Procedure: as §1, §2, §3
# Zinnia elegans Jacq. = assay: as above
# Procedure: as §1, §2, §3
# [3] = test system: Echinochloa crus-galli (L.) Beauv.; assay: as above
# Procedure: as §1, §2, §3
# [4] = test system: broad-leaf weeds and grass weeds; assay: General screening of herbicidal activity in greenhouse; details: 1000 g a.i./hm^2;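 further: 0 means no visible effect and 100 means all weeds dead or not emerged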
# Procedure: as §1, §2, §3
structure (smiles),measurement,setting,value
CCCOC(=O)C1(C)CC(c2cc(-n3c(=O)cc(C(F)(F)F)n(C)c3=O)c(F)cc2Cl)=NO1 (centres unmarked) [Compound 7],"Growth inhibition rate, Post-emergence treatment, Setaria glauca (L.) Beauv.",[1]; dose 7.5 g a.i./hm^2,55%
same,"Growth inhibition rate, Post-emergence treatment, Setaria glauca (L.) Beauv.",[1]; dose 15 g a.i./hm^2,90%
same,"Growth inhibition rate, Post-emergence treatment, Setaria glauca (L.) Beauv.",[1]; dose 30.0 g a.i./hm^2,90%
same,"Growth inhibition rate, Post-emergence treatment, Setaria glauca (L.) Beauv.",[1]; dose 60.0 g a.i./hm^2,100%
same,"Growth inhibition rate, Post-emergence treatment, Setaria glauca (L.) Beauv.",[1]; dose 120.0 g a.i./hm^2,100%
same,"Growth inhibition rate, Post-emergence treatment, Abutilon theophrasti Medic.",[2]; dose 7.5 g a.i./hm^2,75%
same,"Growth inhibition rate, Post-emergence treatment, Abutilon theophrasti Medic.",[2]; dose 15 g a.i./hm^2,98%
same,"Growth inhibition rate, Post-emergence treatment, Abutilon theophrasti Medic.",[2]; dose 30.0 g a.i./hm^2,100%
same,"Growth inhibition rate, Post-emergence treatment, Abutilon theophrasti Medic.",[2]; dose 60.0 g a.i./hm^2,100%
same,"Growth inhibition rate, Post-emergence treatment, Abutilon theophrasti Medic.",[2]; dose 120.0 g a.i./hm^2,100%
same,"Growth inhibition rate, Post-emergence treatment, Zinnia elegans Jacq.",Zinnia elegans Jacq.; dose 7.5 g a.i./hm^2,55%
same,"Growth inhibition rate, Post-emergence treatment, Zinnia elegans Jacq.",Zinnia elegans Jacq.; dose 15 g a.i./hm^2,60%
same,"Growth inhibition rate, Post-emergence treatment, Zinnia elegans Jacq.",Zinnia elegans Jacq.; dose 30.0 g a.i./hm^2,75%
same,"Growth inhibition rate, Post-emergence treatment, Zinnia elegans Jacq.",Zinnia elegans Jacq.; dose 60.0 g a.i./hm^2,98%
same,"Growth inhibition rate, Post-emergence treatment, Zinnia elegans Jacq.",Zinnia elegans Jacq.; dose 120.0 g a.i./hm^2,100%
same,"Growth inhibition rate, Post-emergence treatment, Echinochloa crus-galli (L.) Beauv.",[3]; dose 7.5 g a.i./hm^2,25%
same,"Growth inhibition rate, Post-emergence treatment, Echinochloa crus-galli (L.) Beauv.",[3]; dose 15 g a.i./hm^2,90%
same,"Growth inhibition rate, Post-emergence treatment, Echinochloa crus-galli (L.) Beauv.",[3]; dose 30.0 g a.i./hm^2,98%
same,"Growth inhibition rate, Post-emergence treatment, Echinochloa crus-galli (L.) Beauv.",[3]; dose 60.0 g a.i./hm^2,100%
same,"Growth inhibition rate, Post-emergence treatment, Echinochloa crus-galli (L.) Beauv.",[3]; dose 120.0 g a.i./hm^2,100%
same,pre-emergence and post-emergence herbicidal activity against broad-leaf weeds and grass weeds,[4],good
Cn1c(C(F)(F)F)cc(=O)n(-c2cc(C3=NOC(C)(COS(C)(=O)=O)C3)c(Cl)cc2F)c1=O (centres unmarked) [Compound 88],"Growth inhibition rate, Post-emergence treatment, Setaria glauca (L.) Beauv.",[1]; dose 7.5 g a.i./hm^2,25%
same,"Growth inhibition rate, Post-emergence treatment, Setaria glauca (L.) Beauv.",[1]; dose 15 g a.i./hm^2,30%
same,"Growth inhibition rate, Post-emergence treatment, Setaria glauca (L.) Beauv.",[1]; dose 37.5 g a.i./hm^2,45%
same,"Growth inhibition rate, Post-emergence treatment, Setaria glauca (L.) Beauv.",[1]; dose 150 g a.i./hm^2,70%
same,"Growth inhibition rate, Post-emergence treatment, Setaria glauca (L.) Beauv.",[1]; dose 600 g a.i./hm^2,98%
same,"Growth inhibition rate, Pre-emergence treatment, Setaria glauca (L.) Beauv.",[1]; dose 7.5 g a.i./hm^2,65%
same,"Growth inhibition rate, Pre-emergence treatment, Setaria glauca (L.) Beauv.",[1]; dose 15 g a.i./hm^2,80%
same,"Growth inhibition rate, Pre-emergence treatment, Setaria glauca (L.) Beauv.",[1]; dose 37.5 g a.i./hm^2,30%
same,"Growth inhibition rate, Pre-emergence treatment, Setaria glauca (L.) Beauv.",[1]; dose 150 g a.i./hm^2,85%
same,"Growth inhibition rate, Pre-emergence treatment, Setaria glauca (L.) Beauv.",[1]; dose 600 g a.i./hm^2,100%
same,"Growth inhibition rate, Post-emergence treatment, Abutilon theophrasti Medic.",[2]; dose 7.5 g a.i./hm^2,98%
same,"Growth inhibition rate, Post-emergence treatment, Abutilon theophrasti Medic.",[2]; dose 15 g a.i./hm^2,100%
same,"Growth inhibition rate, Post-emergence treatment, Abutilon theophrasti Medic.",[2]; dose 37.5 g a.i./hm^2,98%
same,"Growth inhibition rate, Post-emergence treatment, Abutilon theophrasti Medic.",[2]; dose 150 g a.i./hm^2,100%
same,"Growth inhibition rate, Post-emergence treatment, Abutilon theophrasti Medic.",[2]; dose 600 g a.i./hm^2,100%
same,"Growth inhibition rate, Pre-emergence treatment, Abutilon theophrasti Medic.",[2]; dose 7.5 g a.i./hm^2,98%
same,"Growth inhibition rate, Pre-emergence treatment, Abutilon theophrasti Medic.",[2]; dose 15 g a.i./hm^2,100%
same,"Growth inhibition rate, Pre-emergence treatment, Abutilon theophrasti Medic.",[2]; dose 37.5 g a.i./hm^2,85%
same,"Growth inhibition rate, Pre-emergence treatment, Abutilon theophrasti Medic.",[2]; dose 150 g a.i./hm^2,100%
same,"Growth inhibition rate, Pre-emergence treatment, Abutilon theophrasti Medic.",[2]; dose 600 g a.i./hm^2,100%
same,"Growth inhibition rate, Post-emergence treatment, Zinnia elegans Jacq.",Zinnia elegans Jacq.; dose 7.5 g a.i./hm^2,98%
same,"Growth inhibition rate, Post-emergence treatment, Zinnia elegans Jacq.",Zinnia elegans Jacq.; dose 15 g a.i./hm^2,100%
same,"Growth inhibition rate, Post-emergence treatment, Zinnia elegans Jacq.",Zinnia elegans Jacq.; dose 37.5 g a.i./hm^2,100%
same,"Growth inhibition rate, Post-emergence treatment, Zinnia elegans Jacq.",Zinnia elegans Jacq.; dose 150 g a.i./hm^2,100%
same,"Growth inhibition rate, Post-emergence treatment, Zinnia elegans Jacq.",Zinnia elegans Jacq.; dose 600 g a.i./hm^2,100%
same,"Growth inhibition rate, Pre-emergence treatment, Zinnia elegans Jacq.",Zinnia elegans Jacq.; dose 7.5 g a.i./hm^2,20%
same,"Growth inhibition rate, Pre-emergence treatment, Zinnia elegans Jacq.",Zinnia elegans Jacq.; dose 15 g a.i./hm^2,30%
same,"Growth inhibition rate, Pre-emergence treatment, Zinnia elegans Jacq.",Zinnia elegans Jacq.; dose 37.5 g a.i./hm^2,45%
same,"Growth inhibition rate, Pre-emergence treatment, Zinnia elegans Jacq.",Zinnia elegans Jacq.; dose 150 g a.i./hm^2,100%
same,"Growth inhibition rate, Pre-emergence treatment, Zinnia elegans Jacq.",Zinnia elegans Jacq.; dose 600 g a.i./hm^2,100%
same,"Growth inhibition rate, Post-emergence treatment, Echinochloa crus-galli (L.) Beauv.",[3]; dose 7.5 g a.i./hm^2,15%
same,"Growth inhibition rate, Post-emergence treatment, Echinochloa crus-galli (L.) Beauv.",[3]; dose 15 g a.i./hm^2,20%
same,"Growth inhibition rate, Post-emergence treatment, Echinochloa crus-galli (L.) Beauv.",[3]; dose 37.5 g a.i./hm^2,25%
same,"Growth inhibition rate, Post-emergence treatment, Echinochloa crus-galli (L.) Beauv.",[3]; dose 150 g a.i./hm^2,60%
same,"Growth inhibition rate, Post-emergence treatment, Echinochloa crus-galli (L.) Beauv.",[3]; dose 600 g a.i./hm^2,95%
same,"Growth inhibition rate, Pre-emergence treatment, Echinochloa crus-galli (L.) Beauv.",[3]; dose 7.5 g a.i./hm^2,5%
same,"Growth inhibition rate, Pre-emergence treatment, Echinochloa crus-galli (L.) Beauv.",[3]; dose 15 g a.i./hm^2,10%
same,"Growth inhibition rate, Pre-emergence treatment, Echinochloa crus-galli (L.) Beauv.",[3]; dose 37.5 g a.i./hm^2,15%
same,"Growth inhibition rate, Pre-emergence treatment, Echinochloa crus-galli (L.) Beauv.",[3]; dose 150 g a.i./hm^2,80%
same,"Growth inhibition rate, Pre-emergence treatment, Echinochloa crus-galli (L.) Beauv.",[3]; dose 600 g a.i./hm^2,100%
same,pre-emergence and post-emergence herbicidal activity against broad-leaf weeds and grass weeds,[4],good
CC(C)COC(=O)C1(C)CC(c2cc(-n3c(=O)cc(C(F)(F)F)n(C)c3=O)c(F)cc2Cl)=NO1 (centres unmarked) [Compound 397],"Growth inhibition rate, Post-emergence treatment, Setaria glauca (L.) Beauv.",[1]; dose 7.5 g a.i./hm^2,55%
same,"Growth inhibition rate, Post-emergence treatment, Setaria glauca (L.) Beauv.",[1]; dose 15 g a.i./hm^2,75%
same,"Growth inhibition rate, Post-emergence treatment, Setaria glauca (L.) Beauv.",[1]; dose 30.0 g a.i./hm^2,85%
same,"Growth inhibition rate, Post-emergence treatment, Setaria glauca (L.) Beauv.",[1]; dose 60.0 g a.i./hm^2,100%
same,"Growth inhibition rate, Post-emergence treatment, Setaria glauca (L.) Beauv.",[1]; dose 120.0 g a.i./hm^2,100%
same,"Growth inhibition rate, Post-emergence treatment, Abutilon theophrasti Medic.",[2]; dose 7.5 g a.i./hm^2,98%
same,"Growth inhibition rate, Post-emergence treatment, Abutilon theophrasti Medic.",[2]; dose 15 g a.i./hm^2,100%
same,"Growth inhibition rate, Post-emergence treatment, Abutilon theophrasti Medic.",[2]; dose 30.0 g a.i./hm^2,100%
same,"Growth inhibition rate, Post-emergence treatment, Abutilon theophrasti Medic.",[2]; dose 60.0 g a.i./hm^2,100%
same,"Growth inhibition rate, Post-emergence treatment, Abutilon theophrasti Medic.",[2]; dose 120.0 g a.i./hm^2,100%
same,"Growth inhibition rate, Post-emergence treatment, Zinnia elegans Jacq.",Zinnia elegans Jacq.; dose 7.5 g a.i./hm^2,60%
same,"Growth inhibition rate, Post-emergence treatment, Zinnia elegans Jacq.",Zinnia elegans Jacq.; dose 15 g a.i./hm^2,85%
same,"Growth inhibition rate, Post-emergence treatment, Zinnia elegans Jacq.",Zinnia elegans Jacq.; dose 30.0 g a.i./hm^2,95%
same,"Growth inhibition rate, Post-emergence treatment, Zinnia elegans Jacq.",Zinnia elegans Jacq.; dose 60.0 g a.i./hm^2,100%
same,"Growth inhibition rate, Post-emergence treatment, Zinnia elegans Jacq.",Zinnia elegans Jacq.; dose 120.0 g a.i./hm^2,100%
same,"Growth inhibition rate, Post-emergence treatment, Echinochloa crus-galli (L.) Beauv.",[3]; dose 7.5 g a.i./hm^2,45%
same,"Growth inhibition rate, Post-emergence treatment, Echinochloa crus-galli (L.) Beauv.",[3]; dose 15 g a.i./hm^2,65%
same,"Growth inhibition rate, Post-emergence treatment, Echinochloa crus-galli (L.) Beauv.",[3]; dose 30.0 g a.i./hm^2,100%
same,"Growth inhibition rate, Post-emergence treatment, Echinochloa crus-galli (L.) Beauv.",[3]; dose 60.0 g a.i./hm^2,100%
same,"Growth inhibition rate, Post-emergence treatment, Echinochloa crus-galli (L.) Beauv.",[3]; dose 120.0 g a.i./hm^2,100%
same,pre-emergence and post-emergence herbicidal activity against broad-leaf weeds and grass weeds,[4],good
